Assay results: patent US20240336566A1, “CRYSTALLINE FORMS OF A COMPOUND FOR THE TARGETED DEGRADATION OF THE ANDROGEN RECEPTOR” (Arvinas Operations, Inc., priority 2023, published 2024)
Values after ≈ are worked out from the molar mass of the structure shown. One block for each molecule: values may come before it.

How the values were obtained:
Type in all cases: physicochemical
[1] = Co-crystal screen: XRPD post temperature cycling and post storage at 40° C./75% RH;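 on XRPD results, primary co-crystal screen post temperature cycling: value is the Compound A free base XRPD pattern number and 9 means a potential new one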; settings: for XRPD results, primary co-crystal screen post storage at 40° C./75% RH / XRPD results, primary co-crystal screen post temperature cycling: Compound A + 1.05 eq. co-former (= label); for XRPD form post storage at 40° C./75% RH: ca. 24 or ca. 30 hours
[2] = Thermodynamic solubility determination in buffers (HPLC); settings: for 0 Hr Solubility / 4 Hr Solubility / 24 Hr Solubility / thermodynamic solubility: 25° C.; for solubility at 0 h / solubility at 4 h / solubility at 24 h: buffer, 25 °C, thermodynamic from solid; for thermodynamic solubility: pH 1.2, after 24 hours, as concentration of Compound A free base
From the text: No clear solubility advantage of the salts was noted over Compound A free base.

[3] = 7-day stability assessment (appearance, HPLC, XRPD); settings: for Reported Purity / Total impurities: HPLC; for purity retained after stability storage (HPLC): after 7 days at 40° C./75% RH (open vial), 80° C. (closed vial), ambient light (closed vial)
Experimental: The material was gently ground to release any agglomerates and loaded onto a multi-well plate with Kapton or Mylar polymer film to support the sample. […] Data were visualized and images generated using the HighScore Plus 4.7 desktop application (PANalytical, 2θ17).
They all remained white or off-white solids. • XRPD analysis determined the patterns were retained.

[4] = Primary salt screen: XRPD post temperature cycling/evaporation, post drying and post storage at 40° C./75% RH; settings: post drying and 40° C./75% RH
Experimental: • 30 mg samples of Compound A were weighed out into 2 mL screw cap sample vials for 96 experiments. To these, 200 μL of the appropriate solvent system was added to dissolve the material or form a slurry. See Table 16 for the solvent systems selected for the primary salt screen.
• 1.05 eq. of solid counterions were weighed into six separate vials each and 1 molar stock solutions were prepared for liquid counterions in 5 mL of THF. See Table 17 for selected counterions and mass/volume needed for 1.05 eq. additions. • 100 μL of the appropriate solvent was added to the solid counterions.
The solution/slurry of counterion was added to the solution/slurry of the free base material.
• The samples were placed in an incubator shaker to temperature cycle between ambient and 40° C. over 4 hour cycles. • After ca. 72 hours of temperature cycling, observations were noted, see Table 19.
• Where slurries were obtained, the solids were isolated via centrifugation. Solids and gels were analyzed by XRPD.
Any samples that were clear solutions after temperature cycling were left to evaporate at ambient conditions. See Table 20 for observations made after evaporation. Solids obtained through evaporation were analyzed by XRPD.
• The samples obtained from temperature cycling were dried under vacuum at 40° C. for ca. 20 hours while the samples obtained from evaporation were dried under vacuum at 40° C. for ca. 4 hours. […]

[5] = Competitive slurry experiments of free base Patterns 1, 2 and 6 (XRPD); settings: slurries of Patterns 1, 2 and 6; ambient or 40° C.
Experimental: XRPD analysis of the second set of competitive slurry experiments was carried out on a Philips X'Pert Pro Multipurpose diffractometer equipped with a spinning stage autosampler. The samples were scanned between 5 and 34.997 °2θ using Cu K radiation (α1γ=1.54060 Å; α2=1.54443 Å; β=1.39225 Å; α1:α2 ratio=0.5) running in Bragg-Brentano geometry (step size 0.008 °2θ, step time 10.160 s, rotation period 2 s) using 40 kV/40 mA generator settings. Data were visualized and images generated using the HighScore Plus 4.7 desktop application (PANalytical, 2θ17).
• Eight samples were prepared containing 10 mg of free base Patterns 1, 2, and 6. • The appropriate solvent systems were added and observations were noted. • After shaking at either ambient or 40° C., observations were noted and the samples were filtered centrifugally. The solids obtained were analyzed by XRPD.
• Due to inconclusive results, the solids were returned to the sample vials and 100 μL of the appropriate solvent was added to each sample. The samples were then capped and sealed by parafilm and shaken at ambient or 40° C. as before. • After shaking for 72 hours, the solids were analyzed by XRPD. […]

[6] = Dynamic vapour sorption (DVS) with XRPD of retained solid
Experimental: 10-20 mg of sample was placed into a mesh vapour sorption balance pan and loaded into a DVS-1 dynamic vapour sorption balance by Surface Measurement Systems. The sample was subjected to a ramping profile from 40-90% relative humidity (RH) at 10% increments, maintaining the sample at each step until a stable weight had been achieved (dm/dt 0.004%, minimum step length 30 minutes, maximum step length 500 minutes) at 25° C. After completion of the sorption cycle, the sample was dried using the same procedure to 0% RH and then a second sorption cycle back to 40% RH. Two cycles were performed. The weight change during the sorption/desorption cycles were plotted, allowing for the hygroscopic nature of the sample to be determined. XRPD analysis was then carried out on any solid retained.

[7] = Heating experiment of Compound A free base Pattern 1 (1H NMR after heating to 250° C.); settings: heated to 250° C. using the TG/DSC
[8] = Buffer pH 1.2, cf concentration of free base, listed as Compound A Besylate
[9] = Buffer pH 3.0, LOQ 0.00025 mg/mL
[10] = Buffer pH 4.0, LOQ 0.00025 mg/mL
[11] = input material before storage (baseline of the stability assessment)
[12] = Buffer pH 1.2, cf concentration of free base, listed as Compound A Free Base Pattern 1
[13] = pH 4, aqueous buffer, Buffer pH 4.0, LOQ 0.00025 mg/mL
[14] = 7 days at 40° C./75% RH (open vial)
[15] = 7 days at Ambient light (closed vial)
[16] = before stability testing (condition N/A)
[17] = Buffer pH 1.2, cf concentration of free base, listed as Compound A Phosphate
[18] = Buffer pH 1.2, cf concentration of free base, listed as Compound A Tosylate
[19] = pH 3, aqueous buffer, Buffer pH 3.0, LOQ 0.00025 mg/mL

XRPD results, primary co-crystal screen post storage at 40° C./75% RH ([1]; 1,4-Dioxane): 4
XRPD results, primary co-crystal screen post temperature cycling ([1]; 1,4-Dioxane): 9
XRPD results, primary co-crystal screen post storage at 40° C./75% RH ([1]; DCM:Methanol (50:50 % v/v)): 2
XRPD results, primary co-crystal screen post temperature cycling ([1]; DCM:Methanol (50:50 % v/v)): 2
XRPD results, primary co-crystal screen post storage at 40° C./75% RH ([1]; THF): 1
XRPD results, primary co-crystal screen post temperature cycling ([1]; THF): 1
SMILES: NC(N)=O [Urea]

0 Hr Solubility [2, 8]: 13.3 µg/mL
4 Hr Solubility [2, 8]: 7.3 µg/mL
24 Hr Solubility [2, 8]: 9.3 µg/mL
0 Hr Solubility [2, 9]: <0.25 µg/mL
4 Hr Solubility [2, 9]: <0.25 µg/mL
24 Hr Solubility [2, 9]: <0.25 µg/mL
0 Hr Solubility [2, 10]: <0.25 µg/mL
4 Hr Solubility [2, 10]: <0.25 µg/mL
24 Hr Solubility ([2]; Buffer pH 4.0, LOQ 0.00025 mg/mL, listed as Compound A Besylate): < 0.25 µg/mL
Reported Purity ([3]; after 7 days at 40° C./75% RH): 97.31 Area %
Total impurities ([3]; after 7 days at 40° C./75% RH): 2.69 Area %
Reported Purity ([3]; after 7 days at 80° C.): 97.56 Area %
Total impurities ([3]; after 7 days at 80° C.): 2.44 Area %
Reported Purity ([3]; after 7 days at ambient): 97.17 Area %
Total impurities ([3]; after 7 days at ambient): 2.83 Area %
Reported Purity [3, 11]: 97.33 Area %
Total impurities [3, 11]: 2.67 Area %
purity retained after stability storage (HPLC) [3]: > 97 % relative area
assessment of salt form in the primary salt screen [4]: stable hydrates
SMILES: COc1cc(O[C@H]2C(C)(C)[C@H](NC(=O)c3ccc(N4CCC(CN5CCN(c6ccc(C(=O)N[C@H]7CCC(=O)NC7=O)c(F)c6)CC5)CC4)cc3)C2(C)C)ccc1C#N [besylate Pattern 1]

0 Hr Solubility [2, 12]: 0.1 µg/mL
4 Hr Solubility [2, 12]: 26.2 µg/mL
24 Hr Solubility [2, 12]: 69.3 µg/mL
0 Hr Solubility [2, 9]: <0.25 µg/mL
4 Hr Solubility [2, 9]: <0.25 µg/mL
24 Hr Solubility [2, 9]: <0.25 µg/mL
solubility at 0 h [2, 13]: < 0.25 µg/mL
solubility at 4 h [2, 13]: < 0.25 µg/mL
solubility at 24 h [2, 13]: < 0.25 µg/mL
thermodynamic solubility [2]: 69.3 µg/mL (≈ 85.8 µM)
relative stability of forms (competitive slurry) [5]: thermodynamic form
HPLC purity [3, 14]: 99.00 % relative area
XRPD after stability storage [3, 14]: No change
HPLC purity ([3]; 7 days at 40° C./75% RH (open vial), listed as Free base Pattern 1): 99.00 % relative area
HPLC purity ([3]; 7 days at 80° C. (closed vial)): 99.03 % relative area
XRPD after stability storage ([3]; 7 days at 80° C. (closed vial)): No change
HPLC purity ([3]; 7 days at 80° C. (closed vial), listed as Free base Pattern 1): 99.03 % relative area
HPLC purity [3, 15]: 99.07 % relative area
XRPD after stability storage [3, 15]: No change
HPLC purity ([3]; 7 days at Ambient light (closed vial), listed as Free base Pattern 1): 99.07 % relative area
Total impurities (HPLC) ([3]; after 7 days at 40° C./75% RH): 1.00 Rel. Area %
purity retained after stability storage (HPLC) [3]: > 99 % relative area
Total impurities (HPLC) ([3]; after 7 days at 80° C.): 0.97 Rel. Area %
Total impurities (HPLC) ([3]; after 7 days at ambient): 0.93 Rel. Area %
Total impurities (HPLC) ([3]; before stability testing): 0.99 Rel. Area %
HPLC purity [3, 16]: 99.01 % relative area
HPLC purity ([3]; before stability testing (condition N/A), listed as Free base Pattern 1): 99.01 % relative area
DVS hygroscopicity [6]: Slightly hygroscopic
Form change after DVS [6]: No
form by XRPD post DVS [6]: no form change
hygroscopic nature (DVS) ([6]; 25° C.): slightly hygroscopic
mass uptake of water (DVS) ([6]; RH not stated at the place): 1.17 wt. %
mass uptake of water (DVS), equivalents ([6]; RH not stated at the place): 0.53 eq.
DVS water uptake ([6]; at 90% RH): 1.17 wt. %
DVS water uptake (equivalents of water) ([6]; at 90% RH): 0.53 eq.
degradation after heating (1H NMR) [7]: had not degraded
SMILES: COc1cc(O[C@H]2C(C)(C)[C@H](NC(=O)c3ccc(N4CCC(CN5CCN(c6ccc(C(=O)N[C@H]7CCC(=O)NC7=O)c(F)c6)CC5)CC4)cc3)C2(C)C)ccc1C#N [free base Pattern 1]

XRPD form post storage at 40° C./75% RH [1]: converts to Pattern 4
XRPD form post storage at 40° C./75% RH ([1]; listed as Pattern 9): converted to free base Pattern 4
SMILES: COc1cc(O[C@H]2C(C)(C)[C@H](NC(=O)c3ccc(N4CCC(CN5CCN(c6ccc(C(=O)N[C@H]7CCC(=O)NC7=O)c(F)c6)CC5)CC4)cc3)C2(C)C)ccc1C#N [free base Pattern 9]

0 Hr Solubility [2, 17]: 5.9 µg/mL
4 Hr Solubility [2, 17]: 29.1 µg/mL
24 Hr Solubility [2, 17]: 30.6 µg/mL
0 Hr Solubility [2, 9]: <0.25 µg/mL
4 Hr Solubility [2, 9]: <0.25 µg/mL
24 Hr Solubility [2, 9]: <0.25 µg/mL
0 Hr Solubility [2, 10]: <0.25 µg/mL
4 Hr Solubility [2, 10]: <0.25 µg/mL
24 Hr Solubility ([2]; Buffer pH 4.0, LOQ 0.00025 mg/mL, listed as Compound A Phosphate): <0.25 µg/mL
thermodynamic solubility [2]: 30.6 µg/mL
assessment of salt form in the primary salt screen [4]: stable hydrates
SMILES: COc1cc(O[C@H]2C(C)(C)[C@H](NC(=O)c3ccc(N4CCC(CN5CCN(c6ccc(C(=O)N[C@H]7CCC(=O)NC7=O)c(F)c6)CC5)CC4)cc3)C2(C)C)ccc1C#N [phosphate Pattern 1]

0 Hr Solubility [2, 18]: 12.2 µg/mL
4 Hr Solubility [2, 18]: 15.4 µg/mL
24 Hr Solubility [2, 18]: 6.3 µg/mL
0 Hr Solubility [2, 10]: <0.25 µg/mL
4 Hr Solubility [2, 10]: <0.25 µg/mL
24 Hr Solubility ([2]; Buffer pH 4.0, LOQ 0.00025 mg/mL, listed as Compound A Tosylate): <0.25 µg/mL
solubility at 0 h [2, 19]: < 0.25 µg/mL
solubility at 4 h [2, 19]: < 0.25 µg/mL
solubility at 24 h [2, 19]: < 0.25 µg/mL
HPLC purity [3, 14]: 97.30 % relative area
Reported Purity ([3]; after 7 days at 80° C.): 96.76 Area %
Total impurities ([3]; after 7 days at 80° C.): 3.24 Area %
Reported Purity ([3]; after 7 days at ambient): 97.09 Area %
Total impurities ([3]; after 7 days at ambient): 2.91 Area %
Total impurities (HPLC) ([3]; after 7 days at 40° C./75% RH): 2.70 Rel. Area %
purity retained after stability storage (HPLC) [3]: > 96 % relative area
XRPD pattern after stability storage ([3]; after 7 days at each stability condition): gained an additional peak
Total impurities (HPLC) ([3]; before stability testing): 2.56 Rel. Area %
HPLC purity [3, 16]: 97.44 % relative area
assessment of salt form in the primary salt screen [4]: stable hydrates
SMILES: COc1cc(O[C@H]2C(C)(C)[C@H](NC(=O)c3ccc(N4CCC(CN5CCN(c6ccc(C(=O)N[C@H]7CCC(=O)NC7=O)c(F)c6)CC5)CC4)cc3)C2(C)C)ccc1C#N [tosylate Pattern 1]
